Data reported in PubChem BioAssay AID1963828 (Molecular Pharmacology Branch, DTP, NCI, 2024).

System: 991263-137-R1-J2-PDC complex spheroid viability
Assay: Anticancer human tumor 991263-137-R1-J2-PDC patient-derived colon adenocarcinoma cell line growth inhibition [POLQ]
Conditions: for IC50: curve of first compound; for viability, T/C: stronger effect = lower value
How it was run: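 PDC + HUVEC + MSC complex spheroids; POLQ inhibitors ± partner drugs; top conc. at/near clinical Cmax, else 10 microM (SN-38 1 microM), half-log dilutions; 37 degrees C, 5% CO2.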

[1] = second compound 0.0316 µM, first compound 0.0316 µM
[2] = second compound 0.0316 µM, first compound 0.1 µM
[3] = second compound 0.0316 µM, first compound 0.316 µM
[4] = second compound 0.0316 µM, first compound 1 µM
[5] = second compound 0.0316 µM, first compound 3.16 µM
[6] = second compound 0.0316 µM, first compound 10 µM
[7] = second compound 0.1 µM, first compound 0.0316 µM
[8] = second compound 0.1 µM, first compound 0.1 µM
[9] = second compound 0.1 µM, first compound 0.316 µM
[10] = second compound 0.1 µM, first compound 1 µM
[11] = second compound 0.1 µM, first compound 3.16 µM
[12] = second compound 0.1 µM, first compound 10 µM
[13] = second compound 0.316 µM, first compound 0.0316 µM
[14] = second compound 0.316 µM, first compound 0.1 µM
[15] = second compound 0.316 µM, first compound 0.316 µM
[16] = second compound 0.316 µM, first compound 1 µM
[17] = second compound 0.316 µM, first compound 3.16 µM
[18] = second compound 0.316 µM, first compound 10 µM
[19] = second compound 1 µM, first compound 0.0316 µM
[20] = second compound 1 µM, first compound 0.1 µM
[21] = second compound 1 µM, first compound 0.316 µM
[22] = second compound 1 µM, first compound 1 µM
[23] = second compound 1 µM, first compound 3.16 µM
[24] = second compound 1 µM, first compound 10 µM
[25] = second compound 3.16 µM, first compound 0.0316 µM
[26] = second compound 3.16 µM, first compound 0.1 µM
[27] = second compound 3.16 µM, first compound 0.316 µM
[28] = second compound 3.16 µM, first compound 1 µM
[29] = second compound 3.16 µM, first compound 3.16 µM
[30] = second compound 3.16 µM, first compound 10 µM
[31] = second compound 10 µM, first compound 0.0316 µM
[32] = second compound 10 µM, first compound 0.1 µM
[33] = second compound 10 µM, first compound 0.316 µM
[34] = second compound 10 µM, first compound 1 µM
[35] = second compound 10 µM, first compound 3.16 µM
[36] = second compound 10 µM, first compound 10 µM
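Further: spheroids exposed to compounds for 7 days before readout.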
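Wherever viability, T/C is given: 100% = DMSO vehicle control viability.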

Compound: C#Cc1c(F)ccc2cc(O)cc(-c3ncc4c(N5CC6CCC(C5)N6)nc(OCC56CCCN5CC(F)C6)nc4c3F)c12 (stereo unspecified) + COC1C(OC(N)=O)C(O)C(Oc2ccc3c(O)c(NC(=O)c4ccc(O)c(CC=C(C)C)c4)c(=O)oc3c2C)OC1(C)C
- IC50 (second compound 0.0316 µM): > 10 µM
- IC50 (second compound 0.1 µM): > 10 µM
- IC50 (second compound 0.316 µM): > 10 µM
- IC50 (second compound 1 µM): > 10 µM
- IC50 (second compound 3.16 µM): > 10 µM
- IC50 (second compound 10 µM): > 10 µM
- viability, T/C [1]: 103%
- viability, T/C [2]: 107%
- viability, T/C [3]: 105%
- viability, T/C [4]: 109%
- viability, T/C [5]: 108%
- viability, T/C [6]: 95.1%
- viability, T/C [7]: 103%
- viability, T/C [8]: 106%
- viability, T/C [9]: 99.4%
- viability, T/C [10]: 88.2%
- viability, T/C [11]: 116%
- viability, T/C [12]: 104%
- viability, T/C [13]: 98.9%
- viability, T/C [14]: 120%
- viability, T/C [15]: 118%
- viability, T/C [16]: 91.5%
- viability, T/C [17]: 114%
- viability, T/C [18]: 92.7%
- viability, T/C [19]: 95.4%
- viability, T/C [20]: 113%
- viability, T/C [21]: 112%
- viability, T/C [22]: 107%
- viability, T/C [23]: 117%
- viability, T/C [24]: 90.6%
- viability, T/C [25]: 104%
- viability, T/C [26]: 123%
- viability, T/C [27]: 122%
- viability, T/C [28]: 121%
- viability, T/C [29]: 109%
- viability, T/C [30]: 104%
- viability, T/C [31]: 102%
- viability, T/C [32]: 102%
- viability, T/C [33]: 102%
- viability, T/C [34]: 110%
- viability, T/C [35]: 102%
- viability, T/C [36]: 91.6%

Compound: C=CC(=O)N1CCN(c2nc(=O)n(-c3c(C)ccnc3C(C)C)c3nc(-c4c(O)cccc4F)c(F)cc23)C(C)C1 (stereo unspecified) + COC1C(OC(N)=O)C(O)C(Oc2ccc3c(O)c(NC(=O)c4ccc(O)c(CC=C(C)C)c4)c(=O)oc3c2C)OC1(C)C
- IC50 (second compound 0.0316 µM): > 10 µM
- IC50 (second compound 0.1 µM): > 10 µM
- IC50 (second compound 0.316 µM): > 10 µM
- IC50 (second compound 1 µM): > 10 µM
- IC50 (second compound 3.16 µM): > 10 µM
- IC50 (second compound 10 µM): > 10 µM
- viability, T/C [1]: 114%
- viability, T/C [2]: 123%
- viability, T/C [3]: 115%
- viability, T/C [4]: 103%
- viability, T/C [5]: 104%
- viability, T/C [6]: 93.3%
- viability, T/C [7]: 108%
- viability, T/C [8]: 129%
- viability, T/C [9]: 115%
- viability, T/C [10]: 115%
- viability, T/C [11]: 114%
- viability, T/C [12]: 95.5%
- viability, T/C [13]: 115%
- viability, T/C [14]: 124%
- viability, T/C [15]: 109%
- viability, T/C [16]: 98.8%
- viability, T/C [17]: 133%
- viability, T/C [18]: 99.9%
- viability, T/C [19]: 107%
- viability, T/C [20]: 106%
- viability, T/C [21]: 110%
- viability, T/C [22]: 120%
- viability, T/C [23]: 115%
- viability, T/C [24]: 119%
- viability, T/C [25]: 98.8%
- viability, T/C [26]: 110%
- viability, T/C [27]: 109%
- viability, T/C [28]: 114%
- viability, T/C [29]: 104%
- viability, T/C [30]: 122%
- viability, T/C [31]: 88.3%
- viability, T/C [32]: 124%
- viability, T/C [33]: 123%
- viability, T/C [34]: 109%
- viability, T/C [35]: 117%
- viability, T/C [36]: 104%

Compound: CC(C)n1c(=O)n(C)c2cnc3cc(F)c(-c4ccc(OCCCN5CCCCC5)nc4)cc3c21 + COC1C(OC(N)=O)C(O)C(Oc2ccc3c(O)c(NC(=O)c4ccc(O)c(CC=C(C)C)c4)c(=O)oc3c2C)OC1(C)C
- IC50 (second compound 0.0316 µM): > 10 µM
- IC50 (second compound 0.1 µM): > 10 µM
- IC50 (second compound 0.316 µM): > 10 µM
- IC50 (second compound 1 µM): > 10 µM
- IC50 (second compound 3.16 µM): > 10 µM
- IC50 (second compound 10 µM): > 10 µM
- viability, T/C [1]: 107%
- viability, T/C [2]: 109%
- viability, T/C [3]: 118%
- viability, T/C [4]: 101%
- viability, T/C [5]: 103%
- viability, T/C [6]: 82.7%
- viability, T/C [7]: 91.5%
- viability, T/C [8]: 106%
- viability, T/C [9]: 116%
- viability, T/C [10]: 99%
- viability, T/C [11]: 102%
- viability, T/C [12]: 82.1%
- viability, T/C [13]: 86.3%
- viability, T/C [14]: 114%
- viability, T/C [15]: 117%
- viability, T/C [16]: 96.9%
- viability, T/C [17]: 106%
- viability, T/C [18]: 96.2%
- viability, T/C [19]: 109%
- viability, T/C [20]: 106%
- viability, T/C [21]: 112%
- viability, T/C [22]: 83.5%
- viability, T/C [23]: 109%
- viability, T/C [24]: 90%
- viability, T/C [25]: 111%
- viability, T/C [26]: 116%
- viability, T/C [27]: 110%
- viability, T/C [28]: 108%
- viability, T/C [29]: 95.3%
- viability, T/C [30]: 96.1%
- viability, T/C [31]: 95.1%
- viability, T/C [32]: 119%
- viability, T/C [33]: 117%
- viability, T/C [34]: 114%
- viability, T/C [35]: 107%
- viability, T/C [36]: 96.6%
